Assay results: ChEMBL document CHEMBL1944599, “From libraries to candidate: the discovery of new ultra long-acting dibasic β₂-adrenoceptor agonists” (Bioorg Med Chem Lett, 2012)

Experiments:
D(2) dopamine receptor = D(2) dopamine receptor (Homo sapiens, UniProt P14416); assay: Displacement of radiolabeled spiperone from dopamine D2 receptor
[1] = target: Beta-1 adrenergic receptor (Homo sapiens, UniProt P08588); assay: Displacement of radiolabeled iodocyanopindolol from beta1 adrenoceptor
[2] = target: T1, Alpha-1D adrenergic receptor (Homo sapiens, UniProt P25100); assay: Displacement of radiolabeled Prazosin from alpha1D adrenoceptor
T1 sequence (P25100 whole entry): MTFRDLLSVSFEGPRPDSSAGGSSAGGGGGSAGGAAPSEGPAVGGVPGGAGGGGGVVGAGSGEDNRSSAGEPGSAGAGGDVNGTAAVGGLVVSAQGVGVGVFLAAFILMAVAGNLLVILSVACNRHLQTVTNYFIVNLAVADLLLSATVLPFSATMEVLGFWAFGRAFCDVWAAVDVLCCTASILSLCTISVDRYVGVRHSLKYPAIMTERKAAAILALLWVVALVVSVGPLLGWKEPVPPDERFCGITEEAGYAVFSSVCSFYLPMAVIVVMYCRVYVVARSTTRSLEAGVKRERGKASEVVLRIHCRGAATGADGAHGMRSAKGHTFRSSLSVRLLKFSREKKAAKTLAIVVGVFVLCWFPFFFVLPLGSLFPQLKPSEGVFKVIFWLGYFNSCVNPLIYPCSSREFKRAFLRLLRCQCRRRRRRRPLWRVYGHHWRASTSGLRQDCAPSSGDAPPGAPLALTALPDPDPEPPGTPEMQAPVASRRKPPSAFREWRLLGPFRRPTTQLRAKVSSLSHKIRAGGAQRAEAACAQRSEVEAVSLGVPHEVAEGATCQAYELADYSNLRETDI

physchem = conditions: 1-octanol/aqueous buffer, pH 7.4
[3] = target: T2, Beta-2 adrenergic receptor (Homo sapiens, UniProt P07550); assay: Agonist activity at human beta2 adrenoceptor expressed in H292 cells assessed as increase in cAMP accumulation after 60 mins by spectrophotometry; format: functional, cell-based
[4] = target: T2, Beta-2 adrenergic receptor; assay: Displacement of radiolabeled iodocyanopindolol from recombinant beta2 adrenoceptor

Beta-1 adrenergic receptor, sequence (P08588 whole entry): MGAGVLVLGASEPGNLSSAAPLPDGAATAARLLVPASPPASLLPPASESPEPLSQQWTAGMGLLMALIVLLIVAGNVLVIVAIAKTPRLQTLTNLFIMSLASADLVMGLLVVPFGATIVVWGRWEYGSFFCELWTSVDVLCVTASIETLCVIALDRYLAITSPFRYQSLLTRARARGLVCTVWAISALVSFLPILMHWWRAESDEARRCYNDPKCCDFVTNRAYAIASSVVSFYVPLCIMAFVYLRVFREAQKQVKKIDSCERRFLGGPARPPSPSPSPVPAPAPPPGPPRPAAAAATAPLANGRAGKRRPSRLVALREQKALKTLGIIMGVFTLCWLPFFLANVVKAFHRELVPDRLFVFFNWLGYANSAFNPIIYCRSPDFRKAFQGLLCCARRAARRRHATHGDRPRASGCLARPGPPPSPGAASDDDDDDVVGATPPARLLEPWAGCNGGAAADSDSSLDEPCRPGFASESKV
T2 sequence (P07550 whole entry): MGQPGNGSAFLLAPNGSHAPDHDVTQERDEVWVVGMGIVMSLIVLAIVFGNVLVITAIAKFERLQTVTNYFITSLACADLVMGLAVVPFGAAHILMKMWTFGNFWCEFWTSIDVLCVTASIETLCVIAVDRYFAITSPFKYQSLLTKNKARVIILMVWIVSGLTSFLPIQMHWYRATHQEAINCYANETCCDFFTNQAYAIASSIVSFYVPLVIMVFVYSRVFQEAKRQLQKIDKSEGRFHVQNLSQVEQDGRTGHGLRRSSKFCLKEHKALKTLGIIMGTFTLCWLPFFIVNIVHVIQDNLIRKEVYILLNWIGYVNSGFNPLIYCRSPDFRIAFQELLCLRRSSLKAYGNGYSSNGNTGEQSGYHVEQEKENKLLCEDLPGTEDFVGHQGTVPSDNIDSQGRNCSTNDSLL
D(2) dopamine receptor, sequence (P14416 whole entry): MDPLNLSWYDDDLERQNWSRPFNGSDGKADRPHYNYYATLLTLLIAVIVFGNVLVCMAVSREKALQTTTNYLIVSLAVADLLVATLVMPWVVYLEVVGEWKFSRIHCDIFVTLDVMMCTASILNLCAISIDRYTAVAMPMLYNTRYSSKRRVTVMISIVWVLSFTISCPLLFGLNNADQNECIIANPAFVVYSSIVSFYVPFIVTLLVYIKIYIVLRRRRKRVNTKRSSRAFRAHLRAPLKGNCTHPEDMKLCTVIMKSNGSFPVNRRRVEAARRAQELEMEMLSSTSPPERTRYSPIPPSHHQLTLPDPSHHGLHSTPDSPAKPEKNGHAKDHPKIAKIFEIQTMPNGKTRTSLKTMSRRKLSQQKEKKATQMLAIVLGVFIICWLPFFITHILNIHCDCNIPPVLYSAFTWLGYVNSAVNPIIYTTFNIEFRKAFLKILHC

SMILES	IC50 (D(2) dopamine receptor)	IC50 [1]	IC50 [2]	logD (physchem)	EC50 [3]	IC50 [4]
COc1ccccc1CNCCc1cccc(CCNC[C@H](O)c2ccc(O)c3[nH]c(=O)sc23)c1	1000 nM	63.1 nM	25.1 nM	0.9		
OCc1cc([C@@H](O)CNCCc2ccc(CNCCc3ccccc3)cc2)ccc1O	> 7940 nM	> 3160 nM	501 nM		31.6 nM	631 nM
COc1ccccc1CCNCc1ccc(CCNCCc2ccc(O)c3[nH]c(=O)sc23)cc1						200 nM
CCOc1ccccc1CNCc1cccc(CCNC[C@H](O)c2ccc(O)c3[nH]c(=O)sc23)c1	1260 nM	100 nM	31.6 nM		3.16 nM	25.1 nM
COc1ccccc1CCNCc1ccc(CCNC[C@H](O)c2ccc(O)c3[nH]c(=O)sc23)cc1	631 nM	316 nM	7.94 nM		0.316 nM	2 nM
C[C@@H](NCc1ccccc1-c1ccc(CCNC[C@H](O)c2ccc(O)c3[nH]c(=O)sc23)cc1)c1ccccc1					3.98 nM	2 nM
O=c1[nH]c2c(O)ccc([C@@H](O)CNCCCc3cccc(CNCCc4c(Cl)cccc4Cl)c3)c2s1	79.4 nM	7.94 nM	39.8 nM		1.26 nM	6.31 nM
O=c1[nH]c2c(O)ccc(CCNCCc3ccc(-c4cccc(CN5Cc6ccccc6C5)c4)cc3)c2s1						15.8 nM
O=c1[nH]c2c(O)ccc(CCNCCc3cccc(CN4CCC(c5ccccc5)CC4)c3)c2s1						31.6 nM
O=c1[nH]c2c(O)ccc([C@@H](O)CNCCc3cccc(CNCc4ccccn4)c3)c2s1	5010 nM	79.4 nM	316 nM			
O=c1[nH]c2c(O)ccc([C@@H](O)CNCCc3ccc(CN4CCCC4)cc3)c2s1					39.8 nM	
CCN(Cc1ccncc1)Cc1cccc(-c2ccc(CCNCCc3ccc(O)c4[nH]c(=O)sc34)cc2)c1					316 nM	794 nM
O=c1[nH]c2c(O)ccc(CCNCCc3ccc(CNCCc4c(Cl)cccc4Cl)cc3)c2s1					100 nM	501 nM
COc1ccccc1CNCc1ccc(CCNC[C@@H](O)c2ccc(O)c3[nH]c(=O)sc23)cc1	2000 nM	1260 nM	79.4 nM		7.94 nM	251 nM
O=c1[nH]c2c(O)ccc([C@@H](O)CNCCc3cccc(CN4CCC(c5ccccc5)CC4)c3)c2s1					1 nM	3.98 nM
O=c1ccc2c([C@@H](O)CNCCc3cccc(CNCCc4ccccn4)c3)ccc(O)c2[nH]1	> 10000 nM	3160 nM	398 nM		2.51 nM	63.1 nM
O=c1[nH]c2c(O)ccc(CCNCCc3cccc(CNCCc4c(Cl)cccc4Cl)c3)c2s1						0.631 nM
O=c1[nH]c2c(O)ccc(CCNCCc3ccc(CN4CC[C@@H](Oc5ccc(Cl)cc5)C4)cc3)c2s1					158 nM	126 nM
O=c1[nH]c2c(O)ccc(CCNCCc3cccc(CN[C@H]4C[C@@H]4c4ccccc4)c3)c2s1					3.98 nM	12.6 nM
O=c1[nH]c2c(O)ccc(CCNCCc3ccc(CNCCc4ccccn4)cc3)c2s1					158 nM	100 nM
CC(Cc1cccc(CNCCc2c(Cl)cccc2Cl)c1)NC[C@H](O)c1ccc(O)c2[nH]c(=O)sc12 (stereo partly drawn)	126 nM	20 nM	39.8 nM	2.4		
O=c1[nH]c2c(O)ccc([C@@H](O)CNCCc3ccc(CNCCc4ccccn4)cc3)c2s1	2510 nM	> 794 nM	25.1 nM	-0.3		
O=c1[nH]c2c(O)ccc([C@@H](O)CNCCc3cccc(CNCCCc4ccccn4)c3)c2s1	> 2510 nM	63.1 nM	251 nM		1 nM	0.501 nM
O=c1[nH]c2c(O)ccc(CCNCCc3ccc(CNCCc4ccccc4F)cc3)c2s1					79.4 nM	1260 nM
O=c1[nH]c2c(O)ccc([C@@H](O)CNCCc3ccc(-c4cccc(CN5Cc6ccccc6C5)c4)cc3)c2s1					10 nM	63.1 nM
